Measurements taken from US12528837B2, “Aryl substituted polymyxin derivatives” (priority 2018, dated 2026).
Converted amounts (≈) assume the structure as drawn. Read-outs that look alike come from different tables or passages of the source. *1 amine or outer side, *2 acyl side, *3 side chain or, on linkers, in order; H or OH if unused. Where a SMILES comes first, the peptide text is derived from it. Bridges are numbered along the chain shown (N, C = ends). [ ]: non-standard residue; d: D form. The star is where a group is joined. GABA(3S-Bn) = O=C(C[C@@H](CN[*:1])Cc1ccccc1)[*:2]; GABA(3R-Bn) = O=C(C[C@H](CN[*:1])Cc1ccccc1)[*:2]; X14 = NC[C@@H](CC(=O)*)c1cccc(-c2ccsc2)c1; X20 = NC[C@H](CC(=O)*)c1cccc(-c2ccccc2)c1; X23 = NC[C@H](CC(=O)*)c1cccc(-c2ccsc2)c1; X18 = NC[C@@H](CC(=O)*)c1cc(Cl)cc(Cl)c1; X24 = NCC[C@@H](C(=O)*)c1ccc(Cl)cc1; X25 = NCC[C@@H](C(=O)*)c1cccc(Cl)c1; X1 = NC[C@@H](CC(=O)*)c1cccc(Cl)c1; X10 = Cc1cccc([C@@H](CN)CC(=O)*)c1; dNle = CCCC[C@@H](N)C(=O)O; Dab = NCC[C@H](N)C(=O)O; Abu = CC[C@H](N)C(=O)O; Dap = NC[C@H](N)C(=O)O

How the values were obtained:
E. coli CA58 = assay type: cell-based
Protocol: (§1) The inoculum was prepared by making a direct suspension of isolated colonies (selected from an 18-24 hour Mueller-Hinton agar plate) adjusted to the 0.5 McFarland standard. […] The assays were performed in duplicate. […] Several of the compounds were subjected to multiple tests, and where this is the case, the MIC presented is the median value obtained. The MIC values are quoted in μg/mL.

K. pneumoniae CA64 = assay type: cell-based
Protocol: as §1

P. aeruginosa CCUG 59347 = assay type: cell-based
Protocol: as §1

E. coli ATCC 25922 = assay type: cell-based; settings: cation-adjusted Mueller-Hinton Broth, 18-20 h, 35° C.
Protocol: (§2) The inoculum was prepared by making a direct suspension of isolated colonies (selected from an 18-24 hour Mueller-Hinton agar plate) adjusted to the 0.5 McFarland standard. […] The assays were performed in duplicate. […] The MIC values are quoted in μg/mL.

A. baumannii NCTC 13424 = assay type: cell-based
Protocol: as §2

P. aeruginosa ATCC 27853 = assay type: cell-based
Protocol: as §2

HK-2 cells = experiment: In vitro renal cell toxicity assay (HK-2); assay type: cell-based
Protocol: The in vitro renal cell toxicity assay was performed according to the following protocol. […] Cells were seeded at 7,500 cells per well in 96-well plates and allowed to adhere overnight. […] Water and DMSO levels were kept constant at 5% and 0.5% respectively. The test compounds were incubated with cells for 24 h at 37° C. 5% CO2 in a humidified atmosphere. […] Media only background values were subtracted before the data was analysed using GraphPad Prism. Individual values were normalised to the vehicle control wells for each compound. Compound concentration values were plotted as log values to enable a dose-response curve to be fitted. The bottom of the curve was constrained to zero and IC50 values were determined. IC50 values are expressed relative to that for PMB in the same experiment. Where multiple determinations have been made, median values are presented.

[1] = Kidney drug level after subcutaneous dose in mouse; assay type: in vivo; settings: mouse, in vivo
Protocol: Four hours after dosing the animals were euthanised and kidneys removed, trimmed of fat and connective tissue, weighed and immediately snap-frozen. After thawing at room temperature, pairs of kidneys from each animal were placed in 2 mL conical tubes containing pre-weighed ceria-stabilised zirconium oxide beads. […] After 10 min. centrifugation at 13,000 rpm and 6° C., 200 μl of the supernatants were transferred into glass inserts and analysed by LC-MS-MS.

K. pneumoniae ATCC 13822 = assay type: cell-based
Protocol: as §2

[2] = cation-adjusted Mueller-Hinton Broth, 18-20 h, 35° C.

Row | SMILES | MIC E. coli CA58 (E. coli CA58; [2]) | MIC K. pneumoniae CA64 (K. pneumoniae CA64; [2]) | MIC P. aeruginosa CCUG 59347 (P. aeruginosa CCUG 59347; [2]) | MIC P. aeruginosa ATCC 27853 (P. aeruginosa ATCC 27853; [2]) | HK-2 rel to PMB (HK-2 cells) | tissue level at time at 4 h ([1]; sc, 17.2 mg/kg) | MIC E. coli CA58 (E. coli CA58; CA58) | MIC K. pneumoniae CA64 (K. pneumoniae CA64; CA64) | MIC P. aeruginosa CCUG 59347 (P. aeruginosa CCUG 59347; CCUG 59347) | MIC P. aeruginosa ATCC 27853 (P. aeruginosa ATCC 27853; ATCC 27853) | also measured
1 | CC(C)C[C@@H]1NC(=O)[C@@H](CC(C)C)NC(=O)[C@H](CCN)NC(=O)[C@@H](NC(=O)[C@H](CN)NC(=O)[C@@H](NC(=O)C[C@H](CN)Cc2ccccc2)[C@@H](C)O)CCNC(=O)[C@H]([C@@H](C)O)NC(=O)[C@H](CCN)NC(=O)[C@H](CCN)NC1=O [Example 7, (R)-4-amino-3- benzylbutanoyl -Thr- Dap-Cyclo[Dab-Dab- DLeu-Leu-Dab-Dab- Thr]. Isomer 1] ({GABA(3R-Bn)}-T[Dap][Dab][Dab][dL]L[Dab][Dab]T; lactam 3-C) | 16 µg/mL (≈ 14.7 µM) | 32 µg/mL (≈ 29.3 µM) | 0.25 µg/mL (≈ 0.229 µM) | – | – | – | – | – | – | – | MIC E. coli ATCC 25922 (E. coli ATCC 25922): 0.25 µg/mL (≈ 0.229 µM)
2 | CC(C)C[C@@H]1NC(=O)[C@@H](CC(C)C)NC(=O)[C@H](CCN)NC(=O)[C@@H](NC(=O)[C@H](CN)NC(=O)[C@@H](NC(=O)C[C@@H](CN)Cc2ccccc2)[C@@H](C)O)CCNC(=O)[C@H]([C@@H](C)O)NC(=O)[C@H](CCN)NC(=O)[C@H](CCN)NC1=O [Example 8, (S)-4-amino-3- benzylbutanoyl-Thr- Dap-Cyclo[Dab-Dab- DLeu-Leu-Dab-Dab- Thr], Isomer 2] ({GABA(3S-Bn)}-T[Dap][Dab][Dab][dL]L[Dab][Dab]T; lactam 3-C) | 16 µg/mL (≈ 14.7 µM) | 32 µg/mL (≈ 29.3 µM) | 0.5 µg/mL (≈ 0.459 µM) | 0.06 µg/mL (≈ 0.055 µM) | – | – | – | – | – | – | MIC A. baumannii NCTC 13424 (A. baumannii NCTC 13424; [2]): 0.25 µg/mL (≈ 0.229 µM)
3 | Cc1cccc([C@@H](CN)CC(=O)N[C@H](C(=O)N[C@@H](CN)C(=O)N[C@H]2CCNC(=O)[C@H]([C@@H](C)O)NC(=O)[C@H](CCN)NC(=O)[C@H](CCN)NC(=O)[C@H](CC(C)C)NC(=O)[C@@H](Cc3ccccc3)NC(=O)[C@H](CCN)NC2=O)[C@@H](C)O)c1 [Example 21, (S)-4-amino-3-(m- tolyl)butanoyl-Thr- Dap-Cyclo[Dab-Dab- DPhe-Leu-Dab-Dab- Thr]] (X10-T[Dap][Dab][Dab][dF]L[Dab][Dab]T; lactam 3-C) | – | – | – | – | 26.7 | 209000 ng/g | 16 µg/mL (≈ 14.2 µM) | 32 µg/mL (≈ 28.5 µM) | 0.5 µg/mL (≈ 0.445 µM) | 0.25 µg/mL (≈ 0.222 µM) | MIC K. pneumoniae ATCC 13822 (K. pneumoniae ATCC 13822; ATCC 13822): 0.25 µg/mL (≈ 0.222 µM)
4 | CC[C@@H]1NC(=O)[C@@H](CC(C)C)NC(=O)[C@H](CCN)NC(=O)[C@@H](NC(=O)[C@H](CN)NC(=O)[C@@H](NC(=O)C[C@H](CN)c2cccc(Cl)c2)[C@@H](C)O)CCNC(=O)[C@H]([C@@H](C)O)NC(=O)[C@H](CCN)NC(=O)[C@H](CCN)NC1=O [Example 23] (X1-T[Dap][Dab][Dab][dL][Abu][Dab][Dab]T; lactam 3-C) | 32 µg/mL (≈ 29.6 µM) | 64 µg/mL (≈ 59.1 µM) | 0.5 µg/mL (≈ 0.462 µM) | 0.25 µg/mL (≈ 0.231 µM) | – | – | – | – | – | – | HK-2 rel to PMB (HK-2 cells; IC50 relative to PMB in the same experiment, 24 h): >41; tissue level at time at 4 h ([1]; mice, 17.2 mg/kg free base sc, 4 h, read-out: 4 hr kidney level): 263000 ng/g
5 | CC[C@@H]1NC(=O)[C@@H](CC(C)C)NC(=O)[C@H](CCN)NC(=O)[C@@H](NC(=O)[C@H](CN)NC(=O)[C@@H](NC(=O)C[C@@H](CN)c2cccc(-c3ccccc3)c2)[C@@H](C)O)CCNC(=O)[C@H]([C@@H](C)O)NC(=O)[C@H](CCN)NC(=O)[C@H](CCN)NC1=O [Example 25] (X20-T[Dap][Dab][Dab][dL][Abu][Dab][Dab]T; lactam 3-C) | 16 µg/mL (≈ 14.2 µM) | 2 µg/mL (≈ 1.78 µM) | 0.5 µg/mL (≈ 0.445 µM) | 0.25 µg/mL (≈ 0.222 µM) | – | – | – | – | – | – | MIC E. coli ATCC 25922 (E. coli ATCC 25922): 0.25 µg/mL (≈ 0.222 µM); MIC K. pneumoniae ATCC 13822 (K. pneumoniae ATCC 13822; [2]): 0.5 µg/mL (≈ 0.445 µM)
6 | CCCC[C@H]1NC(=O)[C@H](CCN)NC(=O)[C@@H](NC(=O)[C@H](CN)NC(=O)[C@@H](NC(=O)C[C@H](CN)c2cc(Cl)cc(Cl)c2)[C@@H](C)O)CCNC(=O)[C@H]([C@@H](C)O)NC(=O)[C@H](CCN)NC(=O)[C@H](CCN)NC(=O)[C@H](CC)NC1=O [Example 28, (S)-4-amino-3-(3,5- dichlorophenyl)butanoyl- Thr-Dap- Cyclo[Dab-Dab- DnorLeu-Abu-Dab- Dab-Thr]] (X18-T[Dap][Dab][Dab][dNle][Abu][Dab][Dab]T; lactam 3-C) | – | – | – | – | 68.5 | 408000 ng/g | 16 µg/mL (≈ 14.3 µM) | 8 µg/mL (≈ 7.16 µM) | 0.25 µg/mL (≈ 0.224 µM) | 0.25 µg/mL (≈ 0.224 µM) | MIC A. baumannii NCTC 13424 (A. baumannii NCTC 13424; NCTC 13424): 0.06 µg/mL (≈ 0.0537 µM)
7 | CC[C@@H]1NC(=O)[C@@H](CC(C)C)NC(=O)[C@H](CCN)NC(=O)[C@@H](NC(=O)[C@H](CN)NC(=O)[C@@H](NC(=O)C[C@H](CN)c2cccc(-c3ccsc3)c2)[C@@H](C)O)CCNC(=O)[C@H]([C@@H](C)O)NC(=O)[C@H](CCN)NC(=O)[C@H](CCN)NC1=O [Example 30, (S)-4-amino-3-(3- (thiophen-3-yl)phenyl)butanoyl- Thr-Dap-Cyclo[Dab- Dab-DLeu-Abu-Dab- Dab-Thr]] (X14-T[Dap][Dab][Dab][dL][Abu][Dab][Dab]T; lactam 3-C) | – | – | – | – | 37.5 | 252000 ng/g | 8 µg/mL (≈ 7.08 µM) | 16 µg/mL (≈ 14.2 µM) | 0.5 µg/mL (≈ 0.442 µM) | 0.25 µg/mL (≈ 0.221 µM) | MIC A. baumannii NCTC 13424 (A. baumannii NCTC 13424; NCTC 13424): 0.06 µg/mL (≈ 0.0531 µM)
8 | CC[C@@H]1NC(=O)[C@@H](CC(C)C)NC(=O)[C@H](CCN)NC(=O)[C@@H](NC(=O)[C@H](CN)NC(=O)[C@@H](NC(=O)C[C@@H](CN)c2cccc(-c3ccsc3)c2)[C@@H](C)O)CCNC(=O)[C@H]([C@@H](C)O)NC(=O)[C@H](CCN)NC(=O)[C@H](CCN)NC1=O [Example 31, (R)-4-amino-3-(3- (thiophen-3-yl)phenyl)butanoyl- Thr-Dap-Cyclo[Dab- Dab-DLeu-Abu-Dab- Dab-Thr]] (X23-T[Dap][Dab][Dab][dL][Abu][Dab][Dab]T; lactam 3-C) | – | – | – | – | – | – | 16 µg/mL (≈ 14.2 µM) | 4 µg/mL (≈ 3.54 µM) | 0.25 µg/mL (≈ 0.221 µM) | 0.25 µg/mL (≈ 0.221 µM) | MIC K. pneumoniae ATCC 13822 (K. pneumoniae ATCC 13822; ATCC 13822): 0.25 µg/mL (≈ 0.221 µM)
9 | CC(C)C[C@@H]1NC(=O)[C@@H](Cc2ccccc2)NC(=O)[C@H](CCN)NC(=O)[C@@H](NC(=O)[C@H](CN)NC(=O)[C@@H](NC(=O)[C@H](CCN)c2ccc(Cl)cc2)[C@@H](C)O)CCNC(=O)[C@H]([C@@H](C)O)NC(=O)[C@H](CCN)NC(=O)[C@H](CCN)NC1=O [reference compound] (X24-T[Dap][Dab][Dab][dF]L[Dab][Dab]T; lactam 3-C) | – | – | – | – | – | – | – | – | – | – | Cytotoxicity (measured IC50 relative to that recorded for Polymyxin B) (HK-2 cells): 4.8; 4 hr kidney level/rel. cytotoxicity [1]: 111; Drug Level in Kidney (μg/g kidney, 4 h) ([1]; sc, 17.2 mg/kg): 533 μg/g kidney
10 | CC(C)C[C@@H]1NC(=O)[C@@H](Cc2ccccc2)NC(=O)[C@H](CCN)NC(=O)[C@@H](NC(=O)[C@H](CN)NC(=O)[C@@H](NC(=O)[C@H](CCN)c2cccc(Cl)c2)[C@@H](C)O)CCNC(=O)[C@H]([C@@H](C)O)NC(=O)[C@H](CCN)NC(=O)[C@H](CCN)NC1=O [reference compound] (X25-T[Dap][Dab][Dab][dF]L[Dab][Dab]T; lactam 3-C) | – | – | – | – | – | – | – | – | – | – | Cytotoxicity (measured IC50 relative to that recorded for Polymyxin B) (HK-2 cells): 5.1; 4 hr kidney level/rel. cytotoxicity [1]: 115; Drug Level in Kidney (μg/g kidney, 4 h) ([1]; sc, 17.2 mg/kg): 589 μg/g kidney
